The source of these data is patent US11382924B2, “Compounds and pharmaceutical uses thereof” (priority 2020, dated 2022).

Data set [1] deals with human D-amino acid oxidase (Homo sapiens, UniProt P14920). Briefly: Inhibition of human D-amino acid oxidase. Type of data set: biochemical. Conditions: read-out: IC50 for inhibiting human D-amino acid oxidase.
Another data set concerns the target 2019-nCoV 3CLPro (Severe acute respiratory syndrome coronavirus 2, UniProt P0DTD1). As to the kind of experiment: 2019-nCoV 3CLPro fluorogenic protease activity assay at 3 μM (35 nM protease, pH 7.0). Conditions: for remaining activity at 3 µM / Residual Protease Activity (%) 3 μM: 3 μM sample; for remaining activity at 3 µM: read-out: Residual Protease Activity (%) 3 μM. The format is biochemical.

Data set [2] deals with T1, SARS-CoV-2 3CLPro (Severe acute respiratory syndrome coronavirus 2, UniProt P0DTD1). As to the kind of experiment: Native-PAGE mobility shift binding with 3CLPro. Conditions: 62.5-1000 μM sample mixed with 40 μM 3CLPro, 4° C., 3 hours.
The subject of data set [3] is SARS-CoV-2. Conditions: Choy et al., 2020; qRT-PCR, supernatant; MOI = 0.02; cited from earlier work.
Data set [4] has as its target T1, SARS-CoV-2 3CLPro. Briefly: biochemical.
The conditions of data set [5]: 2020, cited from earlier work.
In data set [6] the test system is SARS-CoV-2. Briefly: SARS-CoV-2 virucidal assay in Vero E6 cells (qPCR of RdRP gene). Type of data set: cell-based. Conditions: MOI 0.01, 24 h.
Data set [7] has as its target T2, SARS-CoV-2 viral 3CL protease (Severe acute respiratory syndrome coronavirus 2, UniProt P0DTD1). As to the kind of experiment: 3CL protease activity assay, concentration series of SNB01 (IC50). Type of data set: biochemical.
The target of data set [8] is T2, SARS-CoV-2 viral 3CL protease. Briefly: biochemical. Conditions: read-out: Residual Protease Activity (%) 1 μM.
The mark [9] stands for this setting: IC50, Table 34, final DMSO concentration 0.05%.
Where [10] appears, read: Table 34, final DMSO concentration 0.05%, read-out: IC50 (converted).
Where [11] appears, read: Table 34, final DMSO concentration 0.40%, read-out: IC50 (converted).
Where [12] appears, read: 50% inhibition concentration (IC50) against SARS-CoV-2 3CLPro, samples of Table 34, 50 nM protease, 6 μM substrate.

“And” between values parts separate entries of the source, which are not always exact repeats. Equal entries are not always repeated. Where two headings read alike, the source gives them in different places.

human D-amino acid oxidase, sequence (P14920 whole entry): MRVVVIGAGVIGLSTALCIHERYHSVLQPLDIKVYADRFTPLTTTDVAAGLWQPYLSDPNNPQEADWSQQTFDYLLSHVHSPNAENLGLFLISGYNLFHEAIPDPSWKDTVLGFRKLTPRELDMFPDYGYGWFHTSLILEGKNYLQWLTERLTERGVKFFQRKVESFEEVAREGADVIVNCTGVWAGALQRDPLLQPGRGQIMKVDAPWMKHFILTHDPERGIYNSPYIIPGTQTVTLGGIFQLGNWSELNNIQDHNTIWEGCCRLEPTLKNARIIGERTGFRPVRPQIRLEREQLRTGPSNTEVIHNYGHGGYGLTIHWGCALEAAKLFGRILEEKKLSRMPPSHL

As for `O=C(O)c1cc(O)c(O)c(OC(=O)c2cc(O)c(O)c(OC(=O)c3cc(O)c(O)c(O)c3)c2)c1` [Compound 14], the IC50 in data set [1] was determined as 299 nM.
As for `O=C(O)c1cc(O)c(O)c(OC(=O)c2cc(O)c(O)c(OC(=O)c3cc(O)c(O)c(OC(=O)c4cc(O)c(O)c(OC(=O)c5cc(O)c(O)c(O)c5)c4)c3)c2)c1` [Compound 18], the remaining activity at 3 µM at 2019-nCoV 3CLPro is 56%. In addition, the inhibition at 3 µM on 2019-nCoV 3CLPro (3 μM, read-out: inhibition activity against 2019-nCoV 3CLpro) is 44%. For the same molecule, the IC50 in data set [1] was found to be 121 nM.
`O=C(O)c1cc(O)c(O)c(O)c1` [GA, gallic acid, reference compound]: at SARS-CoV-2 3CLPro [2], the “binding to 3CLPro by native-PAGE mobility shift” value was “no significant binding”.
Take `Cc1cccc(C)c1OCC(=O)N[C@@H](Cc1ccccc1)[C@@H](O)C[C@H](Cc1ccccc1)NC(=O)[C@H](C(C)C)N1CCCNC1=O` [Lopinavir]: in the data set with SARS-CoV-2 [3], the EC50 was 26100 nM and the “Therapeutic Index (CC50/EC50)” value is given as 1.906.
`O=C(Oc1cc(OC(=O)c2cc(O)c(O)c(OC(=O)c3cc(O)c(O)c(OC(=O)c4cc(O)c(O)c(O)c4)c3)c2)cc(OC(=O)c2cc(O)c(O)c(OC(=O)c3cc(O)c(O)c(OC(=O)c4cc(O)c(O)c(O)c4)c3)c2)c1)c1cc(O)c(O)c(OC(=O)c2cc(O)c(O)c(OC(=O)c3cc(O)c(O)c(O)c3)c2)c1` [Phloroglucinol 9G]: the half-maximal inhibitory concentration (IC50) against SARS-CoV-2 3CLPro [4] (setting [9]) and on SARS-CoV-2 3CLPro [4] (setting [10]) was 1450 nM in each case.
With `O=C(Oc1cc(OC(=O)c2cc(O)c(O)c(OC(=O)c3cc(O)c(O)c(OC(=O)c4cc(O)c(O)c(OC(=O)c5cc(O)c(O)c(OC(=O)c6cc(O)c(O)c(O)c6)c5)c4)c3)c2)cc(OC(=O)c2cc(O)c(O)c(OC(=O)c3cc(O)c(O)c(OC(=O)c4cc(O)c(O)c(OC(=O)c5cc(O)c(O)c(OC(=O)c6cc(O)c(O)c(O)c6)c5)c4)c3)c2)c1)c1cc(O)c(O)c(OC(=O)c2cc(O)c(O)c(OC(=O)c3cc(O)c(O)c(OC(=O)c4cc(O)c(O)c(OC(=O)c5cc(O)c(O)c(O)c5)c4)c3)c2)c1` [Phloroglucinol 15G], at SARS-CoV-2 3CLPro [4] (setting [11]), the IC50 was 934 nM.
For `CCC(CC)COC(=O)[C@H](C)N[P@](=O)(OC[C@H]1O[C@@](C#N)(c2ccc3c(N)ncnn23)[C@H](O)[C@@H]1O)Oc1ccccc1` [Remdesivir], the CC50 is more than 100000 nM in data set [5] (Choy et al.); more than 25000 nM in data set [5] (Jeon et al.); more than 10000 nM in data set [5] (Pruijssers et al.); 111000 nM in data set [5] (Runfeng et al.); more than 100000 nM in data set [5] (Wang et al.). For the same molecule, the “EC99 against SARS-CoV-2 infection” value was 15 µM and 15.000 µM with SARS-CoV-2 [6] (Vero E6, cell layer); 15 µM and 15.000 µM in the data set with SARS-CoV-2 [6] (Vero E6, supernatant).
In the case of `O=C(OC[C@H]1O[C@@H](OC(=O)c2cc(O)c(O)c(OC(=O)c3cc(O)c(O)c(O)c3)c2)[C@H](OC(=O)c2cc(O)c(O)c(OC(=O)c3cc(O)c(O)c(O)c3)c2)[C@@H](OC(=O)c2cc(O)c(O)c(OC(=O)c3cc(O)c(O)c(O)c3)c2)[C@@H]1OC(=O)c1cc(O)c(O)c(OC(=O)c2cc(O)c(O)c(O)c2)c1)c1cc(O)c(O)c(OC(=O)c2cc(O)c(O)c(O)c2)c1` [SNB01], in data set [7], the half-inhibitory concentration (IC50) is approximately 474 nM.
Regarding `O=C(OC[C@H]1O[C@H](OC(=O)c2cc(O)c(O)c(O)c2)[C@H](OC(=O)c2cc(O)c(O)c(O)c2)[C@@H](OC(=O)c2cc(O)c(O)c(O)c2)[C@@H]1OC(=O)c1cc(O)c(O)c(O)c1)c1cc(O)c(O)c(O)c1` [Sample 1], the remaining activity at 3 µM on 2019-nCoV 3CLPro stood at 52%.
In the case of `O=C(OC[C@H]1O[C@@H](OC(=O)c2cc(O)c(O)c(O)c2)[C@H](OC(=O)c2cc(O)c(O)c(O)c2)[C@@H](OC(=O)c2cc(O)c(O)c(O)c2)[C@@H]1OC(=O)c1cc(O)c(O)c(O)c1)c1cc(O)c(O)c(O)c1` [Sample 2, (2S,3R,4S,5R,6R)-3,4,5-tris(3,4,5-trihydroxybenzoyloxy)-6-((3,4,5-trihydroxybenzoyloxy)methyl)oxan-2-yl 3,4,5-trihydroxybenzoate], on 2019-nCoV 3CLPro, the remaining activity at 3 µM turned out to be 55%. Also, in data set [8], the remaining activity at 1 µM stood at 57%.
Turning to `O=C(OC[C@H]1O[C@H](OC(=O)c2cc(O)c(O)c(OC(=O)c3cc(O)c(O)c(O)c3)c2)[C@H](OC(=O)c2cc(O)c(O)c(OC(=O)c3cc(O)c(O)c(O)c3)c2)[C@@H](OC(=O)c2cc(O)c(O)c(OC(=O)c3cc(O)c(O)c(O)c3)c2)[C@@H]1OC(=O)c1cc(O)c(O)c(OC(=O)c2cc(O)c(O)c(O)c2)c1)c1cc(O)c(O)c(OC(=O)c2cc(O)c(O)c(O)c2)c1` [Sample 3], the IC50 is less than 882 nM at SARS-CoV-2 3CLPro [4] (setting [12]); 666 nM and 665 nM against SARS-CoV-2 3CLPro [4] (setting [9]). Also, the “Residual Protease Activity (%) 3 μM” value on 2019-nCoV 3CLPro is on record as −2%. Moreover, the remaining activity at 1 µM in data set [8] (1 μM sample) turned out to be 39%.
Regarding `O=C(OC[C@H]1O[C@@H](OC(=O)c2cc(O)c(O)c(OC(=O)c3cc(O)c(O)c(O)c3)c2)[C@H](OC(=O)c2cc(O)c(O)c(OC(=O)c3cc(O)c(O)c(O)c3)c2)[C@@H](OC(=O)c2cc(O)c(O)c(OC(=O)c3cc(O)c(O)c(O)c3)c2)[C@@H]1OC(=O)c1cc(O)c(O)c(OC(=O)c2cc(O)c(O)c(O)c2)c1)c1cc(O)c(O)c(OC(=O)c2cc(O)c(O)c(O)c2)c1` [Sample 4, (2S,3R,4S,5R,6R)-3,4,5-tris(3,4-dihydroxy-5-(3,4,5-trihydroxybenzoyloxy)benzoyloxy)-6-((3,4-dihydroxy-5-(3,4,5-trihydroxybenzoyloxy)benzoyloxy)methyl)oxan-2-yl 3,4-dihydroxy-5-(3,4,5-trihydroxybenzoyloxy)benzoate], the “binding to 3CLPro by native-PAGE mobility shift” value at SARS-CoV-2 3CLPro [2] is “significant binding”. For the same molecule, the IC50 was less than 882 nM at SARS-CoV-2 3CLPro [4] (setting [12]) and 806 nM against SARS-CoV-2 3CLPro [4] (setting [9]). In addition, at 2019-nCoV 3CLPro, the “Residual Protease Activity (%) 3 μM” value is on record as −9%. Also, the remaining activity at 1 µM in data set [8] (1 μM sample) came to 43%.
For `O=C(OC[C@H]1O[C@@H](OC(=O)c2cc(O)c(O)c(OC(=O)c3cc(O)c(O)c(OC(=O)c4cc(O)c(O)c(O)c4)c3)c2)[C@H](OC(=O)c2cc(O)c(O)c(OC(=O)c3cc(O)c(O)c(OC(=O)c4cc(O)c(O)c(O)c4)c3)c2)[C@@H](OC(=O)c2cc(O)c(O)c(OC(=O)c3cc(O)c(O)c(OC(=O)c4cc(O)c(O)c(O)c4)c3)c2)[C@@H]1OC(=O)c1cc(O)c(O)c(OC(=O)c2cc(O)c(O)c(OC(=O)c3cc(O)c(O)c(O)c3)c2)c1)c1cc(O)c(O)c(OC(=O)c2cc(O)c(O)c(OC(=O)c3cc(O)c(O)c(O)c3)c2)c1` [Sample 6, (2S,3R,4S,5R,6R)-6-(((3-((3,4-dihydroxy-5-((3,4,5-trihydroxybenzoyl)oxy)benzoyl)oxy)-4,5-dihydroxybenzoyl)oxy)methyl)tetrahydro-2H-pyran-2,3,4,5-tetrayl tetrakis(3-((3,4-dihydroxy-5-((3,4,5-trihydroxybenzoyl)oxy)benzoyl)oxy)-4,5-dihydroxybenzoate)], on SARS-CoV-2 3CLPro [2], the “binding to 3CLPro by native-PAGE mobility shift” value is “significant binding”. The values for the half-inhibitory concentration (IC50) at SARS-CoV-2 3CLPro [4] (setting [12]), against SARS-CoV-2 3CLPro [4] (setting [9]) and at SARS-CoV-2 3CLPro [4] (setting [10]) were less than 609 nM, 602 nM and 602 nM, respectively. Besides, the remaining activity at 1 µM in [8] (1 μM sample) is 39%.
For `O=C(Oc1ccccc1)c1cc(O)c(O)c(OC(=O)c2cc(O)c(O)c(OC(=O)c3cc(O)c(O)c(O)c3)c2)c1` [phenol 3G], the IC50 was 6440 nM against SARS-CoV-2 3CLPro [4] (IC50, Table 34, final DMSO concentration 0.40%) and 6440 nM on SARS-CoV-2 3CLPro [4] (setting [11]).

The IC50 is the concentration that inhibits the measured activity by half. For orientation: inhibition means the share of the control response that was lost under treatment. What is called EC50 is the concentration giving half of the maximal effect.
